Assay: cn = amount concentration of the nth substance listed, in mol/dm3
Conditions: 298.15 K, 101 kPa, Liquid, Taylor dispersion method

CC(=O)Nc1ccc(O)cc1 [N-acetyl-p-aminophenol] + O
Conditions | binary diffusion coefficient [m2/s]
c1 = 0.001 | 6.63e-10
c1 = 0.003 | 6.59e-10
c1 = 0.005 | 6.54e-10
c1 = 0.01 | 6.5e-10
c1 = 0.03 | 6.29e-10
c1 = 0.05 | 6.21e-10

From the NIST ThermoML archive (doi:10.1016/j.jct.2012.03.014)
